The values below come from patent US20040208924A1, “Pharmaceutical tablet having a high api content” (priority 2001, published 2004).

The nature of series [1]: Compactability (slope of tensile strength versus compression pressure) of API blend compressed on an Instron. Format: physicochemical. How it is done:
In order to evaluate the compressibility and compactability of all API lots generated by modifying the crystallization process, a blend of 80% API, 19.5% microcrystalline cellulose and 0.5% magnesium stearate was prepared by mixing in a tumble mixer for 5 minutes. Each mixture was then compressed on an Instron (Universal Stress-Strain Analyzer) using a 0.5 inch diameter tooling (upper and lower punches and die) at a speed of 100 mm/min at compression forces of 5, 10, 15, 20 and 25 kN each for a replicate of three tablets. The tablet dimensions were measured using a digital Vernier calliper and the strength of the tablets were determined using an Erweka hardness tester. The volume of the tablet can be calculated from the tablet dimensions normalized for the true density of the mixture being compressed. The compressibility curves are generated by plotting the solid fraction of the tablet generated at each compression pressure versus the respective compression pressure. The area under such a curve represents the extent of volume reduction. The force required to break the tablets is normalized for the area of the tablet to obtain the tensile strength value. Slopes for profiles of tensile strength versus the compression pressure represent the compactability of the material while the area under the curve of tensile strength versus the solid fraction of the tablets represents the extent of compaction or toughness of the material.

The test system of a further series is matrix metalloproteinase. The note with it: statement referring to WO 97/12902 and U.S. Pat. No. 5,981,490; cited from earlier work.
The nature of series [2]: Solid state stability of crystal forms. In kind it is physicochemical. The note with it: out of four crystal structures (forms 4, 5, 6, 7). The source says: Due to the unique structure of the API material at least four different groups of crystal structures were observed (forms 4, 5, 6, 7) and analyzed by single crystal x-ray. […] Orthorhombic Form 6 consisted of a group of isostructural (1:1) solvates which accommodates solvents such as EtOAc, acetone and MEK. […] An exhaustive study of API crystallization on the feasibility of various solvents, control of polymorphs, and robustness of process concluded that the selected form could be consistently produced and kept stable in iPrOAc (or BuOAc)/Heptane (or Cyclohexane), following which a reproducible crystallization procedure in the iPrOAc/heptane solvent system was developed and implemented. This procedure, associated with the aminolysis of penultimate compound (Chemical Abstracts Systematic Name, (αS)-α-(Benzoylthio)-3,4,4-trimethyl-2,5-dioxo-1-imidazolidinebutanoyl-L-leucyl-N,3-dimethyl-L-valinamide), is successful in purging undesirable side products/impurities such as α,α′-Dithiobis[N-[1-[[[2,2-dimethyl-1-[(methylamino)carbonyl]propyl]amino]-carbonyl]-3-methylbutyl]-3,4,4-trimethyl-2,5-dioxo-1-imidazolidinebutanamide] which is the S,S′-dimer of the API. The crystallization procedure is further described in Table 1.

For the compound `CNC(=O)[C@@H](NC(=O)[C@H](CC(C)C)NC(=O)[C@@H](S)CCN1C(=O)N(C)C(C)(C)C1=O)C(C)(C)C` [API, N-[(2S)-2-Mercapto-1-oxo-4-(3,4,4-trimethyl-2,5-dioxo-1-imidazolidinyl)butyl]-L-leucyl-N,3-dimethyl-L-valinamide], the product compactability was 4.2 kPa/MPa in series [1] (50-g sample recrystallized using 1% AirJet-milled seeds), 5.9 Kpa/MPa in series [1] (50-g sample recrystallized using 1% ball-milled seeds) and 5.3 kPa/MPa in series [1] (50-g sample recrystallized using 1% seeds crystallized from a ground seeded batch). In series [1] (crystallized with 1% ground seeds, without sonication), this compound came in with a compactability of 10.5 kPa/MPa. Besides, the matrix metalloproteinase inhibition entry in the series with matrix metalloproteinase is listed as “effective matrix metalloproteinase inhibitor”.

On to `CNC(=O)[C@@H](NC(=O)[C@H](CC(C)C)NC(=O)[C@@H](S)CCN1C(=O)N(C)C(C)(C)C1=O)C(C)(C)C` [Form 4, N-[(2S)-2-Mercapto-1-oxo-4-(3,4,4-trimethyl-2,5-dioxo-1-imidazolidinyl)butyl]-L-leucyl-N,3-dimethyl-L-valinamide], for which the “stability of the crystal structure in the solid state” value in series [2] is given as “did not transform/decompose to other crystalline structures in the solid state”.
